Experimental data: publication PMC6271860, “Bioactive 30-Noroleanane Triterpenes from the Pericarps of Akebia trifoliata” (Molecules, 2014)
In brackets after ≈: the same amount, converted by molar mass. Counter-ions that a name gives are not always drawn.

Legend:
Cytotoxicity, MTT method = conditions: human
Experimental: (§1) These compounds were also tested for their in vitro cytotoxicity against three human tumor cell lines, A549 (human lung adenocarcinoma), HeLa (human cervical carcinoma) and HepG2 (human liver hepatocellular carcinoma), using the MTT method as described.
(§2) The three tumor cell lines were generously provided by Kunming Institute of Zoology, Chinese Academy of Sciences. The cytotoxic activities of the tested compounds were assayed according to the MTT method by using 96 well plates. Briefly, the cells were cultured in RPMI-1640 medium, supplemented with 10% fetal bovine serum in a humidified atmosphere with 5% CO2 at 37 °C. One hundred μL of adherent cells at the density of 5 × 10^4 cell/mL was seeded into each well of 96-well cell culture plates and incubated in 5% CO2 at 37 °C for 24 h to form a monolayer on the flat bottoms. Then, removed the supernatant per well and subsequently added with 100 μL of fresh medium and 100 μL of medium containing a test compound. The plate was then incubated in 5% CO2at 37 °C. After 72 h, 20 μL of 5 mg/mL MTT in DMSO was added into each well and incubated for 4 h. The supernatant per well was carefully removed and 150 μL of DMSO was added. The plate was then vortex shaken for 15 min to dissolve blue formazan crystals. The optical density (OD) of each well was measured on a Genois microplate reader (Tecan GENios, Männedorf, Switzerland) at the wavelength of 570 nm. All experiments were performed in triplicate and adriamycin was used as a positive control. In each experiment, each of the tumor cell lines was exposed to the test compound at concentrations of 50, 25, 12.5, 6.25, 3.125, 1.5625 µg/mL. The inhibitory rate of cell growth was calculated according to the following formula: Inhibition rate (%) = (ODcontrol− ODtreated)/ODcontrol× 100%. IC50 values were calculated by SPSS 16.0 statistic software. The values were based on three individual experiments and expressed as means ± standard deviation (SD).

[1] = test system: S. typhimurium (CMCC44102); assay: Antibacterial microdilution titre assay (resazurin), MIC; conditions: Salmonella enterica
B. subtilis (CMCC63501) = assay: as above; conditions: Gram-positive, 37 °C, 5–6 h
[2] = test system: S. dysenteriae (CMCC51252); assay: as above; assay type: cell-based; conditions: Shigella dysenteriae
B. cereus (CMCC63302) = assay: as above; conditions: Gram-positive, 37 °C, 5–6 h
MRSA = assay: as above; conditions: for MIC: MRSA, Gram-positive, 37 °C, 5–6 h
S. aureus (CMCC26003) = assay: as above; conditions: Gram-positive, 37 °C, 5–6 h
E. coli (CMCC44102) = assay: as above; conditions: Escherichia coli
[3] = test system: HeLa (human cervical carcinoma); assay: Cytotoxicity, MTT method; conditions: read-out: Cytotoxicity IC50, HeLa cells, 72 h, mean ± SD (n = 3)
Experimental: as §1, §2

[4] = test system: A549 (human lung adenocarcinoma); assay: Cytotoxicity, MTT method; conditions: read-out: Cytotoxicity IC50, A549 cells, 72 h, mean ± SD (n = 3)
Experimental: as §1, §2

[5] = Cytotoxicity IC50, A549 cells, mean ± SD (n = 3)
[6] = Cytotoxicity IC50, HeLa cells, mean ± SD (n = 3)
[7] = Bacillus subtilis, CMCC63501, B. subtilis (CMCC63501)
[8] = Bacillus cereus, CMCC63302, B. cereus (CMCC63302)
[9] = Staphylococcus aureus, CMCC26003, S. aureus (CMCC26003)

Structure (SMILES)	IC50 at 72 h (Cytotoxicity, MTT method) [µM]	IC50 at 72 h (Cytotoxicity, MTT method; [5]) [µM]	IC50 at 72 h (Cytotoxicity, MTT method; [6]) [µM]	MIC [1] [mg/L]	MIC (B. subtilis (CMCC63501); B. subtilis (CMCC63501)) [mg/L]	MIC (B. subtilis (CMCC63501); [7]) [mg/L]	MIC [2] [mg/L]	MIC (B. cereus (CMCC63302); B. cereus (CMCC63302)) [mg/L]	MIC (B. cereus (CMCC63302); [8]) [mg/L]	MIC toward MRSA, fold stronger than the reference compound kanamycin (MRSA; MIC compared with kanamycin)	MIC (MRSA) [mg/L]	MIC (MRSA; Staphylococcus aureus) [mg/L]	MIC (S. aureus (CMCC26003); S. aureus (CMCC26003)) [mg/L]	MIC (S. aureus (CMCC26003); [9]) [mg/L]	MIC (E. coli (CMCC44102)) [mg/L]	IC50 [3] [µM]	IC50 [4] [µM]
C=C1CC[C@]2(C(=O)O)CC[C@]3(C)C(=CCC4[C@@]5(C)CC[C@H](O)C(C)(C)C5CC[C@]43C)C2C1 (stereo partly drawn) [Compound 3, 3β-akebonoic acid]	52.9 ± 5.28	49.5 ± 8.64	28.6 ± 7.41	> 200	12.5 (≈ 28.4 µM)	12.5 to 25 (≈ 28.4 to 56.7 µM)	> 200	25 (≈ 56.7 µM)	12.5 to 25 (≈ 28.4 to 56.7 µM)	about five-fold	25 (≈ 56.7 µM)	12.5 to 25 (≈ 28.4 to 56.7 µM)	25 (≈ 56.7 µM)	12.5 to 25 (≈ 28.4 to 56.7 µM)	> 200	–	–
CC1=C(C(=O)O)N2C(=O)[C@@H](NC(=O)[C@H](N)C3=CCC=CC3)[C@H]2SC1 [C, cefradine, reference compound]	–	–	–	12.5 (≈ 35.8 µM)	–	200 (≈ 572 µM)	12.5 (≈ 35.8 µM)	–	200 (≈ 572 µM)	–	–	> 200	–	50 (≈ 143 µM)	12.5 (≈ 35.8 µM)	–	–
NC[C@H]1O[C@H](O[C@H]2[C@H](O)[C@@H](O[C@H]3O[C@H](CO)[C@@H](O)[C@H](N)[C@H]3O)[C@H](N)C[C@@H]2N)[C@H](O)[C@@H](O)[C@@H]1O [K, kanamycin sulfate, reference compound]	–	–	–	3.9	–	3.9	3.9	–	3.9	–	–	125	–	1.9	3.9	–	–
C=C1CC[C@]2(C(=O)O)CC[C@]3(C)C(=CCC4[C@@]5(C)CC[C@@H](O)C(C)(C)C5CC[C@]43C)C2C1 (stereo partly drawn) [Compound 5, 3α-akebonoic acid]	10.4 ± 1.17	10.6 ± 0.69	5.6	> 200	–	50 (≈ 113 µM)	> 200	–	25 (≈ 56.7 µM)	–	–	> 200	–	> 200	> 200	5.61	–
C=C1CC[C@]2(C(=O)O)CC[C@]3(C)C(=CCC4[C@@]5(C)C[C@@H](O)[C@H](O)C(C)(C)C5CC[C@]43C)C2C1 (stereo partly drawn) [Compound 4, 2α,3β-dihydroxy-30-noroleana-12,20(29)-dien-28-oic acid]	14.3 ± 0.49	8.8	16.33 ± 0.12	> 200	–	25 (≈ 54.7 µM)	> 200	–	50 (≈ 109 µM)	–	–	200 (≈ 438 µM)	–	200 (≈ 438 µM)	> 200	–	8.77 ± 0.59
CC1(O)CCC2(C(=O)O)CCC3(C)C(=CCC4C5(C)CC(O)C(O)C(C)(C)C5CCC43C)C2C1 (stereo not drawn) [Compound 1, 2α,3β,20α-trihydroxy-30-norolean-12-en-28-oic acid]	> 100	> 100	> 100	> 200	–	> 200	> 200	–	> 200	–	–	> 200	–	> 200	> 200	–	–
C=C1CC[C@]2(C(=O)O)CC[C@]3(C)C(=CCC4[C@@]5(C)CC[C@@H](O)[C@](C)(CO)C5CC[C@]43C)C2C1 (stereo partly drawn) [Compound 6, quinatic acid]	> 100	> 100	> 100	> 200	–	12.5 (≈ 27.4 µM)	> 200	–	50 (≈ 109 µM)	–	–	> 200	–	> 200	> 200	–	–
C=C1CCC2(C(=O)O)CCC3(C)C(=CCC4C5(C)CC(O)C(O)C(C)(C=O)C5CCC43C)C2C1 (stereo not drawn) [Compound 2, 2α,3β-dihydroxy-23-oxo-30-norolean-12,20(29)-dien-28-oic acid]	> 100	> 100	> 100	> 200	–	> 200	> 200	–	> 200	–	–	> 200	–	> 200	> 200	–	–
